Data as given in patent US20040192764A1 (H. Lundbeck A/S, priority 2001, published 2004).

Experiment: pharmacological and clinical studies (potency versus racemate, influence of R-citalopram)
Format: in vivo
Conditions: presence of R-citalopram
Text: This may be shown in functional in-vivo pharmacological models and studies of 5-HT-reuptake effect and or in behaviour models, for example depression models.

Structure (SMILES): CN(C)CCC[C@]1(c2ccc(F)cc2)OCc2cc(C#N)ccc21 [R-citalopram]
- influence on the effect of escitalopram: negative impact on the effect of escitalopram
